According to patent USRE50663E1, “Heterocycle derivatives as pesticides” (Bayer Aktiengesellschaft, priority 2017, dated 2025):

Key:
[1] = test system: southern root-knot nematode (Meloidogyne incognita); test: Meloidogyne incognita test; format: in vivo; settings: 20 ppm, after 14 days, lettuce
Protocol: Solvent: 125.0 parts by weight of acetone
To produce a suitable active compound formulation, 1 part by weight of active compound is mixed with the stated amount of solvent and the concentrate is diluted to the desired concentration with water.
Vessels are filled with sand, active compound solution, an egg/larvae suspension of the southern root-knot nematode (Meloidogyne incognita) and lettuce seeds. The lettuce seeds germinate and the plants develop. The galls develop on the roots.
After 14 days, the nematicidal efficacy in % is determined by the formation of galls. 100% means that no galls were found; 0% means that the number of galls on the treated plants corresponds to the untreated control.

[2] = logP by HPLC on reversed-phase column (C18), acidic range; format: physicochemical; settings: reversed-phase HPLC column (C18), formic acid in water/acetonitrile
Protocol: The logP values were determined according to EEC Directive 79/831 Annex V.A8 by HPLC (high-performance liquid chromatography) on a reversed-phase column (C18) using the following methods:
Calibration was carried out using a homologous series of straight-chain alkan-2-ones (having 3 to 16 carbon atoms) with known logP values. The values between successive alkanones are determined by linear regression.

[3] = test system: L1 larvae of the Australian sheep blowfly (Lucilia cuprina); test: Lucilia cuprina test; format: in vivo; settings: 48 h, 100 ppm, after 2 days, read-out: efficacy (kill)
Protocol: (§1) Solvent: dimethyl sulfoxide
(§2) To produce a suitable active compound formulation, 10 mg of active compound are mixed with 0.5 ml of dimethyl sulfoxide, and the concentrate is diluted with water to the desired concentration.
About 20 L1 larvae of the Australian sheep blowfly (Lucilia cuprina) are transferred into a test vessel containing minced horsemeat and the active compound formulation of the desired concentration.
After 2 days, the kill in % is determined. 100% means that all the larvae have been killed; 0% means that no larvae have been killed.

[4] = test system: green peach aphids (Myzus persicae); test: Myzus persicae oral test; format: in vivo; settings: 120 h, 4 ppm, after 5 days, read-out: efficacy
Protocol: Solvent: 100 parts by weight of acetone
To produce a suitable active compound formulation, 1 part by weight of active compound is dissolved with the stated parts by weight of solvent and made up to the desired concentration with water.
50 μl of the active compound formulation are transferred into microtitre plates and made up to a final volume of 200 μl with 150 μl of IPL41 insect medium (33%+15% sugar). Subsequently, the plates are sealed with parafilm, which a mixed population of green peach aphids (Myzus persicae) within a second microtitre plate is able to puncture and imbibe the solution.
(§3) After 5 days, the efficacy in % is determined. 100% means that all the aphids have been killed; 0% means that no aphids have been killed.

[5] = test system: caterpillars of the fall armyworm (Spodoptera frugiperda); test: Spodoptera frugiperda spray test; format: in vivo; settings: foliar, 168 h, 100 g/ha, after 7 days, maize leaf discs, read-out: efficacy
Protocol: (§4) Solvent: 78.0 parts by weight of acetone • • 1.5 parts by weight of dimethylformamide
(§5) Emulsifier: alkylaryl polyglycol ether
(§6) To produce a suitable active compound formulation, 1 part by weight of active compound is dissolved with the specified parts by weight of solvent and made up to the desired concentration with water containing an emulsifier concentration of 1000 ppm. To produce further test concentrations, the formulation is diluted with emulsifier-containing water.
Leaf discs of maize (Zea mays) are sprayed with an active compound formulation of the desired concentration and, after drying, populated with caterpillars of the fall armyworm (Spodoptera frugiperda).
After 7 days, the efficacy in % is determined. 100% means that all the caterpillars have been killed; 0% means that no caterpillar has been killed.

[6] = test system: adult cat fleas (Ctenocephalides felis); test: Ctenocephalides felis oral test; format: in vivo; settings: 48 h, 100 ppm in citrated cattle blood, after 2 days, read-out: efficacy (kill)
Protocol: as §1
To produce a suitable active compound formulation, 10 mg of active compound are mixed with 0.5 ml of dimethyl sulfoxide. Dilution with citrated cattle blood gives the desired concentration.
About 20 unfed adult cat fleas (Ctenocephalides felis) are placed into a chamber which is closed at the top and bottom with gauze. A metal cylinder whose bottom end is closed with parafilm is placed onto the chamber. The cylinder contains the blood/active compound formulation, which can be imbibed by the fleas through the parafilm membrane.
After 2 days, the kill in % is determined. 100% means that all of the fleas have been killed; 0% means that none of the fleas have been killed.

[7] = test system: adult houseflies (Musca domestica); test: Musca domestica test; format: in vivo; settings: after 2 days
Protocol: as §1, §2
Vessels containing a sponge treated with sugar solution and the desired concentration of active compound formulation are populated with 10 adult houseflies (Musca domestica).
After 2 days, the kill in % is determined. 100% means that all of the flies have been killed; 0% means that none of the flies have been killed.

[8] = test system: green peach aphid (Myzus persicae); test: Myzus persicae spray test; format: in vivo; settings: foliar, 120 h, 100 g/ha, after 5 days, Chinese cabbage leaf discs, read-out: efficacy
Protocol: Solvent: 78 parts by weight of acetone • • 1.5 parts by weight of dimethylformamide
as §5, §6
Discs of Chinese cabbage leaves (Brassica pekinensis) infested by all stages of the green peach aphid (Myzus persicae) are sprayed with an active compound formulation of the desired concentration.
as §3

[9] = test system: larvae of the mustard beetle (Phaedon cochleariae); test: Phaedon cochleariae spray test; format: in vivo; settings: foliar, 168 h, 100 g/ha, after 7 days, Chinese cabbage leaf discs, read-out: efficacy
Protocol: as §4, §5, §6
Discs of Chinese cabbage leaves (Brassica pekinensis) are sprayed with an active compound formulation of the desired concentration and, after drying, populated with larvae of the mustard beetle (Phaedon cochleariae).
After 7 days, the efficacy in % is determined. 100% means that all the beetle larvae have been killed; 0% means that no beetle larvae have been killed.

[10] = test system: adult cat fleas (Ctenocephalides felis); test: Ctenocephalides felis in vitro contact test with adult cat fleas; format: in vivo; settings: application rate 5 μg/cm^2 (=500 g/ha), after 48 h, dead or moribund fleas
Protocol: For the coating of the test tubes, 9 mg of active compound are first dissolved in 1 ml of acetone p.a. and then diluted to the desired concentration with acetone p.a. 250 μl of the solution are distributed homogeneously on the inner walls and the base of a 25 ml glass tube by turning and rocking on an orbital shaker (rocking rotation at 30 rpm for 2 h). With 900 ppm of active compound solution and internal surface area 44.7 cm^2, given homogeneous distribution, an area-based dose of 5 μg/cm^2 is achieved.
After the solvent has evaporated off, the tubes are populated with 5-10 adult cat fleas (Ctenocephalides felis), sealed with a perforated plastic lid and incubated in a horizontal position at room temperature and ambient humidity. After 48 h, efficacy is determined. To this end, the tubes are stood upright and the fleas are knocked to the base of the tube. Fleas which remain motionless at the base or move in an uncoordinated manner are considered to be dead or moribund.
100% efficacy means that all the fleas were dead or moribund. 0% efficacy means that no fleas were harmed.

[11] = test system: engorged adult female cattle ticks (Boophilus microplus); test: Boophilus microplus injection test; format: in vivo; settings: 20 μg/animal, injection into abdomen
Protocol: as §1
To produce a suitable active compound formulation, 10 mg of active compound are mixed with 0.5 ml of solvent and the concentrate is diluted to the desired concentration with solvent.
1 μl of the active compound solution is injected into the abdomen of 5 engorged adult female cattle ticks (Boophilus microplus). The animals are transferred into dishes and kept in a climate-controlled room.
The activity is assessed after the desired time by laying of fertile eggs. Eggs which are not visibly fertile are stored in a climate-controlled cabinet until the larvae hatch after about 42 days. An efficacy of 100% means that none of the ticks has laid any fertile eggs; 0% means that all the eggs are fertile.

chromatographic logP [2]	SMILES	nematicidal efficacy (formation of galls) [1] [%]	pest or weed control at 100 ppm [3] [%]	pest or weed control at 4 ppm [4] [%]	pest or weed control at 100 g/ha [5] [%]	pest or weed control at 100 ppm [6] [%]	efficacy (kill) ([7]; 100 ppm) [%]	pest or weed control at 100 g/ha [8] [%]	pest or weed control at 100 g/ha [9] [%]	efficacy [10] [%]	efficacy (kill) ([7]; 20 ppm) [%]	efficacy (no laying of fertile eggs) [11] [%]
2.71	CCS(=O)(=O)c1c(-c2nc3cc(C(F)(F)F)cnc3n2C)nc2cc(NC(=S)NC3CC3)ccn12 [Example I-05, 1-Cyclopropyl-3-{3-(ethylsulfonyl)-2-[3-methyl-6-(trifluoromethyl)-3H-imidazo[4,5-b]pyridin-2-yl]imidazo [1,2-a]pyridin-7-yl}thiourea]	90	100	100	100	100	100	90	100	–	–	–
–	CCS(=O)(=O)c1c(-c2nc3cc(SC(F)(F)F)cnc3n2C)nc2cc(S(=O)(=O)C3CC3)ccn12 [Example I-12]	–	–	100	100	100	100	100	100	–	–	–
2.89	CCS(=O)(=O)c1c(-c2nc3cc(C(F)(F)F)cnc3n2C)nc2cc(S(=O)(=O)C3CC3)ccn12 [Example I-09, 2-[7-(Cyclopropylsulfonyl)-3-(ethylsulfonyl)imidazo[1,2-a]pyridin-2-yl]-3-methyl-6-(trifluoromethyl)-3H-imidazo[4,5-b]pyridine]	–	100	100	100	100	–	90	100	100	80	–
–	CCS(=O)(=O)c1c(-c2nc3cc(C(F)(F)F)cnc3n2C)nc2cc(NC(=O)C3CC3)ccn12 [Example I-01]	–	100	100	100	100	80	90	100	100	–	–
–	CCS(=O)(=O)c1c(-c2nc3cc(C(F)(F)F)cnc3n2C)nc2cc(C(F)(F)C3CC3)ccn12 [Example I-21]	–	–	–	100	100	–	–	100	–	–	90
2.55	CCS(=O)(=O)c1c(-c2nc3cc(C(F)(F)F)cnc3n2C)nc2cc(NS(=O)(=O)NC3CC3)ccn12 [Example I-07, N-Cyclopropyl-N′-{3-(ethylsulfonyl)-2-[3-methyl-6-(trifluoromethyl)-3H-imidazo[4,5-b]pyridin-2-yl]imidazo[1,2-a]pyridin-7-yl}sulfurdiamide]	–	100	100	–	100	80	–	–	100	–	–
–	CCS(=O)(=O)c1c(-c2nc3cc(C(F)(F)F)cnc3n2C)nc2cc(C(=O)C3CC3)ccn12 [Example I-20]	–	–	–	100	–	–	–	100	–	–	80
